Results as given in patent US20250297998A1, “SYSTEM AND METHODS FOR MEASURING AIRBORNE GLYCOL” (Grignard Pure LLC, priority 2022, published 2025).

Columns and labels:
[1] = Visual appearance and odor; assay type: physicochemical
From the text: (§1) As a non-limiting example, the sanitizing formulation can include 52.25% TEG by weight, 1.00% PG by weight, and 46.75% water (e.g., deionized water) by weight. The properties of this particular example of the sanitizing formulation (and pure TEG as a comparative reference) is summarized in the table below

PLTL-15 Odor Test = assay type: physicochemical
From the text: as §1

[2] = ASTM D4052 specific gravity; assay type: physicochemical
From the text: as §1

ASTM D1120 boiling point = assay type: physicochemical
From the text: as §1

ASTM D93 flash point = assay type: physicochemical
From the text: as §1

ASTM D323 vapor pressure = assay type: physicochemical; settings: @ 20° C.
From the text: as §1

[3] = ASTM D445 kinematic viscosity; assay type: physicochemical
From the text: as §1

ASTM D117 freeze point = assay type: physicochemical
From the text: as §1

[4] = cited from earlier work

Appearance and Odor [1]: Clear/Uniform | Odor Test (PLTL-15 Odor Test): No Odor | Specific Gravity @ 20° C. [2]: 1.12-1.13 | Boiling Point (° C.) (ASTM D1120 boiling point): 285° ° C. | Flash Point (° C.) (ASTM D93 flash point): 157° ° C. | Vapor Pressure (psi) (ASTM D323 vapor pressure): 0.0 psi @ 20 °C | Viscosity, Kinematic @ 40° C. [3]: 42.3 cSt | Freeze Point ° C. (ASTM D117 freeze point): −7.0° ° C.
SMILES: OCCOCCOCCO [Pure TEG, triethylene glycol]
flash point ([4]; TEG alone, flammable liquid): 157 °C | boiling point ([4]; at a pressure of 101.325 kPa): 286.5 °C
